{"source": "patent EP0119332A1", "about": "“Novel pyranose oxidase processes for the production and use thereof and test compositions for use therein” (priority 1983, dated 1984)", "format_in_all_cases": "biochemical", "key": {"pyranose oxidase [1]": {"biological_target": "T1, pyranose oxidase (Trametes versicolor, UniProt P79076)", "T1 construct": "made in house; host or cells: Coriolus versicolor ATCC 20155, the native producer (not recombinant); Enzyme was purified from disrupted mycelium by HPA-75, Sepharose 4B and Sephadex G-100 columns", "protocol": "In this phase, 1.4 ml of 50 mM tris-hydrochloride buffer (pH 7.0), 0.1. ml of 250 mU enzyme solution and 0.5 ml of electron acceptor solutions having various concentrations as indicated in Table 2 were put into a cell with Thunberg tube. After saturating with dissolved oxygen, the reaction solution was mixed with 0.5 ml of a 0.1 M glucose solution. The change in absorbancy per minute from 30 minutes to 90 minutes after mixing was determined and the activities of the electron acceptors are expressed as relative activity."}, "pyranose oxidase [2]": {"biological_target": "T1, pyranose oxidase", "test": "biochemical", "protocol": "Samples of the enzyme were dissolved in Tris buffer solutions have the pH indicated in Figure 2 to make up enzyme solutions having an activity of 250 mU/3.7 ml. Each of the enzyme solutions was put into a BIOXYGRAPH cell (trade name for a cell for measuring oxygen concentration made by Kyusui Kagaku Laboratory, Japan), and 50 µℓ of 1 M glucose were added. Measurements were made to determine the amount of absorbed oxygen.\nVarious inhibitors were studied in the same manner as that adopted in determination of the optimum pH. A reaction solution comprising 3.4 ml of 50 mM tris-hydrochloride buffer (pH 7.0), 0.1 ml of enzyme solutin containing 280 mU of pyranose oxidase and 0.2 ml of 18.5 mM inhibitor solution were put into a cell for measuring oxygen uptake and 50µℓof 1M glucose were added thereto and the sample incubated at 37°C."}, "pyranose oxidase [3]": {"biological_target": "T1, pyranose oxidase", "test": "Substrate specificity (relative activity on carbohydrates, peroxidase/4AA-phenol colour assay)", "conditions": "substrate: 0.1 ml of 100 mM carbohydrate liquor; enzyme 2.5 U/ml; percentage of the glucose reaction", "protocol": "A 3.0 ml sample is first prepared comprising 1.0 ml of 0.1 M tris-hydrochloride buffer (pH 7.0), 0.2 ml of a colouring reagent prepared in advance as hereinafter described, 0.1 ml of 1 M glucose solution, 0.1 ml of a solution of the pyranose oxidase at a known concentration, 0.1 ml of 0.1 mM flavinadenine dinucleotide and 1.5 ml of distilled water. Said colouring reagent is prepared by adding 0.1 M tris-hydrochloride buffer (pH 7.0) containing 10 m mol ℓ4-aminoantipyrine (hereinafter referred to as 4AA) and 10 m mol/Zphenol, to an amount of a peroxidase which is sufficient to provide a peroxidase concentration in said buffer of 2000 U per 100 mI. The pyranose oxidase containing sample is incubated at 37°C and the increasing rate of the absorbancy at 500 nm is automatically measured on a spectrophotometer. If the molecular extinction coefficient of a quinoneimine pigment formed under these conditions is defined as 5.3 x 10^3, and one unit of enzymatic activity is defined as the amount of the enzyme that produces one µ mole of hydrogen peroxide per minute at a temperature of 37°C and at a pH of 7.0, then the enzymatic activity (A) of the pyranose oxidase in the sample can be defined by the following formula:- [formula] where A500 is the rate of increase of the absorbancy of the sample per minute at 500nm.\nThe same reactions as described in the assay method for enzymatic activity were repeated except that an enzyme concentration of 2.5 U/ml was used, and, as the substrate, 0.1 ml samples of various carbohydrate liquors indicated in Table I were used, each such liquor having a concentration of 100 mM. […] The specificity with respect to the latter two, in particular being a great deal lower than that of the known pyranose oxidase derived from microorganisms of the genus Polyporus (Table 1 of B.B.A. 167, 501-510 (1968))."}, "[4]": {"conditions": "electron acceptor concentration 0.1 mM, pH 7.0, 250 mU enzyme solution, 0.1 M glucose solution"}, "[5]": {"conditions": "0.2 ml of 18.5 mM inhibitor solution, 280 mU pyranose oxidase, pH 7.0, 37°C, 50 µl of 1M glucose"}}, "note": "Read-outs that look alike come from different tables or passages of the source."}
{"compound": "O=C1C(Cl)=CC(=Nc2ccc(O)cc2)C=C1Cl", "note": "[2,6-Dichlorophenolindophenol]", "values": [{"measurement": "Relative Activity (%)", "setting": "pyranose oxidase [1]; electron acceptor concentration 0.04 mM, pH 7.0, 250 mU enzyme solution, 0.1 M glucose solution", "result": 2.5, "unit": "%"}]}
{"compound": "Oc1cccc2cccnc12", "note": "[8-hydroxyquinoline]", "values": [{"measurement": "Percent Inhibition (%)", "setting": "pyranose oxidase [2]; pH 7", "result": 13.3, "unit": "%"}]}
{"compound": "NC(=O)c1ccc[n+]([C@@H]2O[C@H](COP(=O)([O-])OP(=O)(O)OC[C@H]3O[C@@H](n4cnc5c(N)ncnc54)[C@H](OP(=O)(O)O)[C@@H]3O)[C@@H](O)[C@H]2O)c1", "note": "[Nicotinamide-adenine dinucleotide phosphate]", "values": [{"measurement": "Relative Activity (%)", "setting": "pyranose oxidase [1]; [4]", "result": 0, "unit": "%"}]}
{"compound": "NC(=O)c1ccc[n+]([C@@H]2O[C@H](COP(=O)([O-])OP(=O)(O)OC[C@H]3O[C@@H](n4cnc5c(N)ncnc54)[C@H](O)[C@@H]3O)[C@@H](O)[C@H]2O)c1", "note": "[Nicotinamide-adenine dinucleotide]", "values": [{"measurement": "Relative Activity (%)", "setting": "pyranose oxidase [1]; [4]", "result": 0, "unit": "%"}]}
{"compound": "O=O", "note": "[Oxygen]", "values": [{"measurement": "electron acceptor suitability (in words)", "setting": "pyranose oxidase [1]", "result": "optimum electron acceptor"}, {"measurement": "Relative Activity (%)", "setting": "pyranose oxidase [1]; pH 7", "result": 100, "unit": "%"}]}
{"compound": "O=C(CO)[C@@H](O)[C@H](O)[C@H](O)CO", "note": "[fructose]", "values": [{"measurement": "Relative Activity (%)", "setting": "pyranose oxidase [3]", "result": 0, "unit": "%"}]}
{"compound": "O=C[C@H](O)[C@@H](O)[C@@H](O)[C@H](O)CO", "note": "[galactose]", "values": [{"measurement": "Relative Activity (%)", "setting": "pyranose oxidase [3]", "result": 0.9, "unit": "%"}]}
{"compound": "O=C(O)[C@H](O)[C@@H](O)[C@H](O)[C@H](O)CO", "note": "[gluconic acid]", "values": [{"measurement": "Relative Activity (%)", "setting": "pyranose oxidase [3]", "result": 0, "unit": "%"}]}
{"compound": "N[C@H]1C(O)O[C@H](CO)[C@@H](O)[C@@H]1O", "note": "(stereo partly shown) [glucosamine]", "values": [{"measurement": "Relative Activity (%)", "setting": "pyranose oxidase [3]", "result": 0, "unit": "%"}]}
{"compound": "OO", "note": "[hydrogen peroxide]", "values": [{"measurement": "inhibition at 18500 µM", "setting": "pyranose oxidase [2]; pH 7, read-out: Percent Inhibition (%)", "result": 20, "unit": "%"}]}
{"compound": "OC[C@H]1O[C@@H](O[C@H]2[C@H](O)[C@@H](O)C(O)O[C@@H]2CO)[C@H](O)[C@@H](O)[C@H]1O", "note": "(stereo partly shown) [lactose]", "values": [{"measurement": "Relative Activity (%)", "setting": "pyranose oxidase [3]", "result": 0, "unit": "%"}]}
{"compound": "OC[C@H]1O[C@H](O[C@H]2[C@H](O)[C@@H](O)[C@H](O)O[C@@H]2CO)[C@H](O)[C@@H](O)[C@@H]1O", "note": "[maltose]", "values": [{"measurement": "Relative Activity (%)", "setting": "pyranose oxidase [3]", "result": 0, "unit": "%"}]}
{"compound": "OC[C@@H](O)[C@@H](O)[C@H](O)[C@H](O)CO", "note": "[mannitol]", "values": [{"measurement": "Relative Activity (%)", "setting": "pyranose oxidase [3]", "result": 0, "unit": "%"}]}
{"compound": "O=[N+]([O-])[O-].[Ag+]", "note": "[silver nitrate]", "values": [{"measurement": "Percent Inhibition (%)", "setting": "pyranose oxidase [2]; [5]", "result": 53.3, "unit": "%"}]}
{"compound": "O=C(CO)[C@H](O)[C@@H](O)[C@H](O)CO", "note": "[sorbose]", "values": [{"measurement": "Relative Activity (%)", "setting": "pyranose oxidase [3]", "result": 3.4, "unit": "%"}]}
{"compound": "OC[C@H]1O[C@H](O[C@H]2O[C@H](CO)[C@@H](O)[C@H](O)[C@H]2O)[C@H](O)[C@@H](O)[C@@H]1O", "note": "[trehalose]", "values": [{"measurement": "Relative Activity (%)", "setting": "pyranose oxidase [3]", "result": 0, "unit": "%"}]}
{"compound": "O=C[C@H](O)[C@@H](O)[C@H](O)CO", "note": "[xylose]", "values": [{"measurement": "Relative Activity (%)", "setting": "pyranose oxidase [3]", "result": 2.6, "unit": "%"}]}
{"compound": "Nitroprusside-tetrazolium", "values": [{"measurement": "Relative Activity (%)", "setting": "pyranose oxidase [1]; [4]", "result": 0, "unit": "%"}]}
{"compound": "cobalt sulfate", "values": [{"measurement": "Percent Inhibition (%)", "setting": "pyranose oxidase [2]; [5]", "result": 13.3, "unit": "%"}]}
{"compound": "copper sulfate", "values": [{"measurement": "Percent Inhibition (%)", "setting": "pyranose oxidase [2]; [5]", "result": 35.7, "unit": "%"}]}
{"compound": "magnesium sulfate", "values": [{"measurement": "Percent Inhibition (%)", "setting": "pyranose oxidase [2]; [5]", "result": 0, "unit": "%"}]}
